Reference: patent publication US6060468A, “N-substituted azaheterocyclic compounds” (Novo Nordisk A/S, priority 1996, dated 2000)

Tested on: histamine induced paw oedema
Experiment: Histamine induced paw oedema (rat)
Assay type: in vivo, male Sprague-Dawley rats
Conditions: 1.0 mg/kg, intraperitoneal, 15 min before anaesthetics; histamine 50 microliter 3 mg/ml in right hind paw; swelling after 20 min
Experimental: I. Histamine Induced Paw Oedema The rat histamine paw oedema test was performed essentially as described by Amann et al. (Europ. J. Pharmacol. 279, 227-231, 1995). In brief 250-300 g male Sprague-Dawley rats were anaesthetized with pentobarbital sodium, and placed on a 32 degree (Celsius) heated table. Ten minutes later histamine (50 micoliter, 3 mg/ml) was injected in the right hind paw and 20 minutes hereafter the paw swelling was determined by water plethysmography (Ugo Basile). Test compounds were administered intraperitoneally at 15 minutes before the anaesthetics. Values for inhibition of histamine induced oedema response for some representative compounds are recorded in table 1.

Structure (SMILES) | % Oedema inhibition (inhibition of histamine induced oedema response) [%]
O=C(O)[C@@H]1CCCN(CCOC2Cc3ccccc3Sc3ccccc32)C1 (stereo partly drawn) [Example 1, 1-(2-(10,11-Dihydrodibenzo[b,f]thiepin-10-yloxy)-1-ethyl)-(3R)-piperidinecarboxylic acid acetate] | 37
Cc1ccc2c(c1)CC(OCCN1CCCC(C(=O)O)C1)c1ccccc1S2.O=C(O)C(=O)O (centres unmarked) [Example 5, 1-(2-(2-Methyl-10,11-dihydrodibenzo[b,f]thiepin-10-yloxy)-1-ethyl)-3-piperidinecarboxylic acid hydrogen oxalate] | 49
